In test [1] the target is T1, histamine H2 -receptors (Rattus norvegicus, UniProt P25102).
T1 construct: from tissue; host or cells: stomach of the living, anaesthetised rat (in vivo)
The test can be described thus: In vivo antisecretory activity in histamine-induced gastric secretion (stomach-perfused rat). The note with it: i.v., histamine 1 mg.kg^-1 hr^-1 intravenous, urethane anesthesia, values expressed taking the compound as a base. From the text:
The ability of the test compounds to inhibit histamine-induced gastric secretion of acid was investigated after intravenous or intraduodenal administration in stomach-perfused rats, according to Gosh and Schild (Br. J. Pharmacol. Chemother. 13, 54, 1958).
The preparation of the animals under general anesthesia (urethane, lg.kg^-1 i.p.) and constant temperature, was achieved by inserting and tying in place polyethylene tubes (PE 50) in the esophagus and in the pyloric-antral region. After the stomach was washed to remove residual of foods, continuous perfusion of the stomach was started with saline, 0.5 ml.min^-1 (37° C.), primed by a Jobling peristaltic pump. After 30 minutes of perfusion adaptation, the stomach perfusate was collected in 30 minute samples, and titrated for acid content, expressed as μEq of NaOH 1N. As control acid output became constant, intravenous perfusion of histamine (1 mg.kg^-1 hr^-1) was started and maintained throughout the experimental period. After the acid secretion had reached the steadily higher level, increasing doses of the test compound were injected intravenously in order to obtain dose-response functions. The ED50 was then calculated by standard procedure.

Test [2] concerns the target T2, histamine H2 -receptors (Cavia porcellus, UniProt P47747).
T2 construct: isolated guinea pig atria suspended in an organ bath (50 ml); from tissue; host or cells: isolated guinea pig atria
The test can be described thus: In vitro inhibition of histamine induced tachycardia (positive chronotropic effect), isolated guinea pig atria. It is filed as cell-based. As to conditions: 32° C., pH 7.4, 30 minutes contact before histamine 10^-6 g.ml^-1. The method, then: The myocardial preparation, loaded with 1 g isometric tension, was allowed to stabilize 60 minutes, and myocardial contractions were recorded through an isometric lever connected to a strain-gauge coupler and the instantaneous rate was monitored with a cardiotachometer, and a heatwriting pen recorder. After two control responses to histamine (10^-6 g.ml^-1) the test compound was added to the bath at the desired final concentration and left for 30 minutes before the atria were again challenged with histamine. The chronotropic response obtained in the presence of the antagonist was then compared to the control response to histamine, and the percent reduction of the histamine H2 -evoked response was calculated. […] 3, Smooth muscle, Ed. Daniel E. E. Paton, M., Plenum Press, New York, (1975); Ash and Schild, Br. J. Pharmacol. Chemother. 27, 427-439, 1966.

The next test relates to gastric acid secretion. The note with it: prior art statement; cited from earlier work.

T2 sequence (P47747 whole entry): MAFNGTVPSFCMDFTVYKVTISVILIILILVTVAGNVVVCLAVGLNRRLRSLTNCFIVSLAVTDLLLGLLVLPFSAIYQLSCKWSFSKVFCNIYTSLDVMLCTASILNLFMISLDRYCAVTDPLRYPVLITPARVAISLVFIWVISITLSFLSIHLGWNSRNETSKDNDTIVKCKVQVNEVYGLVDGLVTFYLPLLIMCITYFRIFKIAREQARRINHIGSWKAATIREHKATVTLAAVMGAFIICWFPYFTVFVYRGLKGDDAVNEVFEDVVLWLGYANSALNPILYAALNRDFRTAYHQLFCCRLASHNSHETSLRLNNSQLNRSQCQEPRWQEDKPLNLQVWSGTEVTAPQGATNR
T1 sequence (P25102 whole entry): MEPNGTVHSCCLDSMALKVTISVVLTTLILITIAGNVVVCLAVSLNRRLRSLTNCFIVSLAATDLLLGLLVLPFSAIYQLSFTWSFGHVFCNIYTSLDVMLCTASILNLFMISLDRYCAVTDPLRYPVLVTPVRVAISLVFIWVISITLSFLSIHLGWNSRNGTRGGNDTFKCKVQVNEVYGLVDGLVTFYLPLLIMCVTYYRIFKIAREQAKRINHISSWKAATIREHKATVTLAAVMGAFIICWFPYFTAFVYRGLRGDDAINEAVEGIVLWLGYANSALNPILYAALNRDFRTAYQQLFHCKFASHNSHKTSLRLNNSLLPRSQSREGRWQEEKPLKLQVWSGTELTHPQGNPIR

For `CC(O)CNC=Nc1ccc(-c2c[nH]cn2)cc1` (stereo not drawn) [6 (a), N-(2-hydroxypropyl)-N'-[4-(imidazol-4-yl)-phenyl]-formamidine], the 50% effect level at histamine H2 -receptors [1] (ED50) was put at a dose of 0.043 mg/kg. Besides, a half-maximal effect on histamine H2 -receptors [2] (EC50) was put at 1.27 µM.
On the same counts, the results for `CSCCNC=Nc1ccc(-c2c[nH]cn2)cc1` [6 (b), N-(2-Methylthio-ethyl)-N'-[4-(imidazol-4-yl)-phenyl]-formamidine] are 0.022 mg/kg and 0.327 µM.
On the same counts, the results for `N#CCCNC=Nc1ccc(-c2c[nH]cn2)cc1` [6 (j), N-(2-Cyano-ethyl)-N'-[4-(imidazol-4-yl)-phenyl]-formamidine] are 0.046 mg/kg and 1.6 µM.
For the molecule `CCCCNC=Nc1ccc(-c2c[nH]cn2)cc1C` [6 (k), N-n-Butyl-N'-[4-(imidazol-4-yl)-2-methyl-phenyl]-formamidine], the 50% effect level at histamine H2 -receptors [1] (ED50) was put at a dose of 0.078 mg/kg. Moreover, at histamine H2 -receptors [2], the EC50 (usually the concentration at which the effect is half-maximal) turned out to be 0.309 µM.
On the same counts, the results for `C=CCNC=Nc1ccc(-c2c[nH]cn2)cc1C` [6 (l), N-Allyl-N'-[4-(imidazol-4-yl)-2-methyl-phenyl]-formamidine] are 0.09 mg/kg and 0.294 µM.
Taken in the same sequence, the figures for `CCCNC=Nc1ccc(-c2c[nH]cn2)cc1OC` [6 (m), N-Propyl-N'-[2-methoxy-4-(imidazol-4-yl)-phenyl]-formamidine] were 0.059 mg/kg and 0.6 µM.
On the same counts, the results for `CCOCSCCNC=Nc1ccc(-c2c[nH]cn2)cc1` [8 (b), N-(2-Ethoxymethylthio-ethyl)-N'-[4-(imidazol-4-yl)-phenyl]-formamidine] are 0.083 mg/kg and 0.32 µM.
As for `CCCNC=Nc1ccc(-c2c[nH]cn2)cc1Br` [8 (c), N-n-Propyl-N'-[2-bromo-4-(imidazol-4-yl)-phenyl]-formamidine], the ED50 (as a rule, the dose at which the effect has come halfway, by size or by number of responders) on histamine H2 -receptors [1] worked out at 0.117 mg/kg. For the same molecule, the EC50 on histamine H2 -receptors [2] was found to be 0.35 µM.
Take `CN/C(=N/CCSCc1nc[nH]c1C)NC#N` [CIMETIDINE, cimetidine]: the “effect on gastric acid secretion” value with gastric acid secretion is “capable of antagonizing gastric acid secretion”.
`COCCN=CNc1ccc(-c2c[nH]cn2)cc1` [Example 6, N-(2-Methoxy-ethyl)-N'-[4-(imidazol-4-yl)-phenyl]-formamidine] registered an ED50 at histamine H2 -receptors [1] of 0.05 mg/kg. The same molecule registered a concentration giving a half-maximal response (EC50) at histamine H2 -receptors [2] of 0.588 µM.
With `CNC(=S)NCCCCc1cnc[nH]1` [burimamide], the “effect on gastric acid secretion” value in the test on gastric acid secretion is recorded as “capable of antagonizing gastric acid secretion”.
`COc1ccc(CN(CCN(C)C)c2ccccn2)cc1` [mepyramine]: the “effect on gastric acid secretion” value in the test on gastric acid secretion was “no effect on gastric acid secretion”.
As for `C/N=C(\S)NCCSCc1[nH]cnc1C` [metiamide], the “effect on gastric acid secretion” value with gastric acid secretion was “capable of antagonizing gastric acid secretion”.
In the case of `CNC(=C[N+](=O)[O-])NCCSCc1ccc(CN(C)C)o1` [ranitidine], the “effect on gastric acid secretion” value in the test with gastric acid secretion is recorded as “capable of antagonizing gastric acid secretion to a greater extent than cimetidine”.
Consider `CNC(=NCCSCc1csc(N=C(N)N)n1)NC#N` [tiotidine], for which, in the test on gastric acid secretion, the “effect on gastric acid secretion” value was “capable of antagonizing gastric acid secretion to a greater extent than cimetidine”.

The record behind these values is patent US4666932A, “Formamidine derivatives and pharmaceutical use” (Istituto de Angeli S.p.A., priority 1982, dated 1987).
